# Experimental data reported in publication PMC4826333 (Journal of medicinal chemistry, 2015).
# Assays:
# [1] = system: PC-3, DU-145, LNCaP, and HeLa; assay: Trypan blue cytotoxicity, panel of cancer cell lines; conditions: four cancer cell lines; for cytotoxicity as compared with curcumin: 1 and 10 μM
# PC-3, DU145, LNCaP, HeLa = assay: Relative potency versus curcumin over the cancer cell lines, WST-1 and TB; type: cell-based, human; conditions: in the tested cancer cell lines
SMILES,cytotoxicity as compared with curcumin [1],activity at 10 μM concentration [1],"times more potent than curcumin (PC-3, DU145, LNCaP, HeLa)"
"Cn1cncc1/C=C/C(=O)/C=C/c1cncn1C [Compound 16, (1E,4E)-1,5-Bis(1-methyl-1H-imidazol-5-yl)penta-1,4-dien-3-one]",as effective (or slightly more effective) as curcumin,,
"Cn1cc(/C=C/C(=O)/C=C/c2cnn(C)c2)cn1 [Compound 17, (1E,4E)-1,5-Bis(1-methyl-1H-pyrazol-4-yl)penta-1,4-dien-3-one]",did not show increased or similar cytotoxicity,almost inactive,
"Cn1nc(C(F)(F)F)c(/C=C/C(=O)/C=C/c2c(C(F)(F)F)nn(C)c2Cl)c1Cl [Compound 18, (1E,4E)-1,5-Bis(5-chloro-1-methyl-3-(trifluoromethyl)-1H-pyrazol-4-yl)penta-1,4-dien-3-one]",as effective (or slightly more effective) as curcumin,,
"O=C(/C=C/c1cocn1)/C=C/c1cocn1 [Compound 20, (1E,4E)-1,5-Bis(oxazol-4-yl)penta-1,4-dien-3-one]",as effective (or slightly more effective) as curcumin,,
"Cc1nc(C(F)(F)F)c(/C=C/C(=O)/C=C/c2sc(C)nc2C(F)(F)F)s1 [Compound 24, (1E,4E)-1,5-Bis(2-methyl-4-(trifluoromethyl)thiazol-5-yl)-penta-1,4-dien-3-one]",,,11–36 times
"O=C(/C=C/c1cccnc1)/C=C/c1cccnc1 [Compound 27, (1E,4E)-1,5-Di(pyridin-3-yl)penta-1,4-dien-3-one]",as effective (or slightly more effective) as curcumin,,
"O=C(/C=C/c1ccc2ccccc2n1)/C=C/c1ccc2ccccc2n1 [Compound 31, (1E,4E)-1,5-Di(quinolin-2-yl)penta-1,4-dien-3-one]",as effective (or slightly more effective) as curcumin,,
"O=C(/C=C/c1ccnc2ccccc12)/C=C/c1ccnc2ccccc12 [Compound 32, (1E,4E)-1,5-Di(quinolin-4-yl)penta-1,4-dien-3-one]",as effective (or slightly more effective) as curcumin,,
"O=C(/C=C/c1cc2ccccc2nc1Cl)/C=C/c1cc2ccccc2nc1Cl [Compound 33, (1E,4E)-1,5-Bis(2-chloroquinolin-3-yl)penta-1,4-dien-3-one]",did not show increased or similar cytotoxicity,almost inactive,
"Cc1nc(/C=C/C(=O)/C=C/c2nc(C)c(-c3ccncc3)s2)sc1-c1ccncc1 [Compound 34, (1E,4E)-1,5-Bis(4-methyl-5-(pyridin-4-yl)thiazol-2-yl)penta-1,4-dien-3-one]",did not show increased or similar cytotoxicity,almost inactive,
"O=C(/C=C/c1nc2ccccc2s1)/C=C/c1nc2ccccc2s1 [Compound 35, (1E,4E)-1,5-Bis(benzo[d]thiazol-2-yl)penta-1,4-dien-3-one]",as effective (or slightly more effective) as curcumin,,
